According to ChEMBL document CHEMBL5518181, “Studies of antibacterial activity (in vitro and in vivo) and mode of action for des-acyl tridecaptins (DATs)” (Eur J Med Chem, 2024):
Values after ≈ are worked out from the molar mass of the structure shown. Active and inactive are the calls of the source. The rule behind the calls is not given here.

Assays:
Klebsiella aerogenes = test: Antibacterial activity against Enterobacter aerogenes ATCC 13048 assessed as inhibition of bacterial growth incubated for 18 hrs; assay type: functional; settings: read-out: MIC100
Serratia marcescens = test: Antibacterial activity against intrinsically colistin resistant Serratia marcescens ATCC 13880 assessed as inhibition of bacterial growth incubated for 18 hrs; assay type: functional; settings: read-out: MIC100
Escherichia coli [1] = test: Antibacterial activity against Escherichia coli ATCC 35218 infected in Swiss albino mouse septicemia model assessed as log10 reduction in bacterial burden below stasis in blood at 20 mg/kg, iv administered twice every 2 hrs and measured after 5 hrs; assay type: functional
Klebsiella pneumoniae [2] = test: Antibacterial activity against Klebsiella pneumoniae ATCC 13883 assessed as inhibition of bacterial growth incubated for 18 hrs in presence of 5 mM KCl; assay type: functional, organism-based
Cell membrane [3] = test: Induction of membrane permeabilization in Escherichia coli ATCC 25922 at 32 to 64 ug/ml measured after 30 mins to 2 hrs by Sytox Green labelling based microscopic analysis; assay type: cell membranes; settings: dose 32-64 µg/ml, time 0.5-2 hrs
Lipopolysaccharide (LPS) = test: Binding affinity to Pseudomonas aeruginosa LPS assessed as dissociation constant by ITC analysis; assay type: subcellular
Escherichia coli [4] = test: Antibacterial activity against colistin resistant Escherichia coli NCTC 13846 harboring mcr-1 gene assessed as inhibition of bacterial growth incubated for 18 hrs; assay type: functional; settings: read-out: MIC100
[5] = Cytotoxicity against human HepG2 cells incubated for 40 hrs by celltiter-glo luminescent cell viability assay; assay type: toxicity, cell-based
[6] = Aqueous solubility of compound at pH 4.6; assay type: physicochemical
[7] = Lipophilicity, logD of compound at pH 7.4; assay type: physicochemical; settings: buffer
Klebsiella pneumoniae [8] = test: Antibacterial activity against Klebsiella pneumoniae ATCC 43816 assessed as inhibition of bacterial growth incubated for 18 hrs; assay type: functional; settings: read-out: MIC100
[9] = Chemical stability of compound in mercaptoethanol; assay type: physicochemical
[10] = Binding affinity to gram negative bacterial lipid II assessed as dissociation constant by ITC analysis; set-up: species or system Bacteria
[11] = Clearance in mouse microsomes; assay type: ADME, Microsome
[12] = Half life in Swiss mouse at 10 mg/kg, iv administered as single bolus dose and measured upto 24 hrs by LC-MS/MS analysis; assay type: ADME, organism-based; settings: in vivo
[13] = Drug localization in cytoplasm of Escherichia coli ATCC 25922 at 10 uM incubated for 10 mins by LC-MS/MS analysis; assay type: ADME, subcellular
[14] = Observed clearance in Swiss mouse at 10 mg/kg, iv administered as single bolus dose and measured upto 24 hrs by LC-MS/MS analysis; assay type: ADME, organism-based; settings: in vivo
Escherichia coli [15] = test: Antibacterial activity against Escherichia coli ATCC 35218 infected in Swiss albino mouse septicemia model at 10 to 30 mg/kg, iv administered twice every 2 hrs and measured after 5 hrs; assay type: functional, organism-based; settings: dose 10-30 mg/kg
Pseudomonas aeruginosa = test: Antibacterial activity against efflux-deficient Pseudomonas aeruginosa PAO750 assessed as inhibition of bacterial growth incubated for 18 hrs; assay type: functional; settings: read-out: MIC100
Citrobacter freundii = test: Antibacterial activity against Citrobacter freundii ATCC 8090 assessed as inhibition of bacterial growth incubated for 18 hrs; assay type: functional; settings: read-out: MIC100
Staphylococcus aureus = test: Antibacterial activity against wild type Staphylococcus aureus USA300 assessed as inhibition of bacterial growth incubated for 18 hrs; assay type: functional; settings: read-out: MIC100
[16] = Chemical stability of compound at pH 7.4; assay type: physicochemical; settings: buffer
Cell membrane [17] = test: Induction of membrane permeabilization in Klebsiella pneumoniae ATCC 13883 at 32 to 64 ug/ml measured after 30 mins by Sytox Green labelling based microscopic analysis; assay type: cell membranes; settings: dose 32-64 µg/ml
Escherichia coli [18] = test: Antibacterial activity against Escherichia coli ATCC 35218 infected in Swiss albino mouse septicemia model assessed as log10 reduction in bacterial burden below stasis in spleen at 20 mg/kg, iv administered twice every 2 hrs and measured after 5 hrs; assay type: functional
Proteus mirabilis = test: Antibacterial activity against Proteus mirabilis ATCC 25933 assessed as inhibition of bacterial growth incubated for 18 hrs; assay type: functional; settings: read-out: MIC100
[19] = Cmax in Swiss mouse lung at 10 mg/kg, iv administered as single bolus dose and measured upto 24 hrs by LC-MS/MS analysis; assay type: ADME, organism-based
[20] = Chemical stability of compound in glutathione; assay type: physicochemical
Escherichia coli [21] = test: Antibacterial activity against Escherichia coli panel (100 strains) assessed as inhibition of bacterial growth; assay type: functional
Cytochrome P450 2B6 = target: T1, Cytochrome P450 2B6 (Homo sapiens, UniProt P20813); test: Induction of CYP2B6 (unknown origin); assay type: ADME
T1 sequence (P20813 whole entry): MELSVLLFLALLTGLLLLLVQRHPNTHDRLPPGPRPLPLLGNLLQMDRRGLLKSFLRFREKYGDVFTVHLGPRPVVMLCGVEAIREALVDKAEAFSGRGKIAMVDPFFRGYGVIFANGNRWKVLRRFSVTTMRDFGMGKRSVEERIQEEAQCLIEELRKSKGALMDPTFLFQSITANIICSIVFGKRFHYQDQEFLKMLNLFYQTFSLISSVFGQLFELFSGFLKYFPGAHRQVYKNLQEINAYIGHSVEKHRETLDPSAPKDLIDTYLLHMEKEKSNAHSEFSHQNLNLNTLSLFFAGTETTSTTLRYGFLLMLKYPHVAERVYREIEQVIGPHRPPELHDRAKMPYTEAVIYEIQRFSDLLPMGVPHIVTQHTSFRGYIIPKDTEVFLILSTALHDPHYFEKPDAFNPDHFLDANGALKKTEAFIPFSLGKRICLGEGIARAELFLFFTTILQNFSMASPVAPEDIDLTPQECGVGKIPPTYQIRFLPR

[22] = Toxicity in naive mouse at 5 to 15 mg/kg, iv administered as single dose every 4 hrs for 24 hrs; assay type: organism-based; settings: in vivo, dose 5-15 mg/kg
[23] = Hydrophobicity of compound assessed as %MeCN at peak elution by RP-HPLC analysis; assay type: physicochemical
Escherichia coli [24] = test: Antibacterial activity against Escherichia coli ATCC 25922 assessed as inhibition of bacterial growth incubated for 18 hrs in presence of 5 mM KCl; assay type: functional, organism-based
Klebsiella pneumoniae [25] = test: Antibacterial activity against Klebsiella pneumoniae ATCC 43816 infected in mouse urinary tract infection model at <10 mg/kg, iv administered every 4 hrs and measured after 26 hrs; assay type: functional, organism-based
[26] = AUClast in Swiss mouse liver at 10 mg/kg, iv administered as single bolus dose and measured upto 24 hrs by LC-MS/MS analysis; assay type: ADME, organism-based
[27] = Aqueous solubility of compound at pH 7.4; assay type: physicochemical
Escherichia coli [28] = test: Antibacterial activity against wild-type Escherichia coli ATCC 25922 assessed as inhibition of bacterial growth incubated for 18 hrs; assay type: functional; settings: read-out: MIC100
Klebsiella pneumoniae [29] = test: Antibacterial activity against Klebsiella pneumoniae panel (100 strains) assessed as inhibition of bacterial growth; assay type: functional
Klebsiella pneumoniae [30] = test: Antibacterial activity against Klebsiella pneumoniae ATCC 13883 assessed as inhibition of bacterial growth incubated for 18 hrs in presence of 150 mM NaCl; assay type: functional, organism-based
[31] = Hepatotoxicity in cryopreserved rat primary hepatocytes; assay type: toxicity, cell-based, Hepatocyte
[32] = Hemolytic activity in human red blood cells at 400 ug/ml incubated for 45 mins by spectrophotometric analysis relative to control; assay type: toxicity, cell-based, Erythrocyte; settings: red blood cells (erythrocytes), at 400 µg/mL, read-out: Activity

SMILES: CC[C@H](C)[C@@H](NC(=O)[C@@H](NC(=O)[C@H](CCC(=O)O)NC(=O)[C@H](Cc1ccccc1)NC(=O)[C@@H](CCN)NC(=O)[C@H](CCN)NC(=O)[C@H](CO)NC(=O)[C@@H](Cc1c[nH]c2ccccc12)NC(=O)[C@@H](CO)NC(=O)CNC(=O)[C@@H](CCN)NC(=O)[C@H](NC(=O)[C@H](C)N)C(C)C)C(C)C)C(=O)N[C@@H](C)C(=O)O
- MIC (Klebsiella aerogenes): 8 µg/mL (≈ 5.46 µM)
- MIC (Serratia marcescens): 8 µg/mL (≈ 5.46 µM)
- log(activity) (Escherichia coli [1]): ~2
- Activity (Klebsiella pneumoniae [2]): Active
- Activity (Cell membrane [3]): Active
- Kd (Lipopolysaccharide (LPS)): 42.8 µM
- MIC (Escherichia coli [4]): 2 µg/mL (≈ 1.36 µM)
- IC50 at 40 h [5]: > 170 µg/mL
- solubility [6]: > 1000 µg/mL
- logD [7]: 1.36
- MIC (Klebsiella pneumoniae [8]): 8 µg/mL (≈ 5.46 µM)
- Stability [9]: Stable
- Kd [10]: 2.6 µM
- microsomal CLint [11]: 2 µL/min/mg
- half-life [12]: 22.8 min
- Drug uptake [13]: Active
- clearance [14]: 2 mL/min/kg
- Activity (Escherichia coli [15]): Active
- MIC (Pseudomonas aeruginosa): 32 µg/mL (≈ 21.8 µM)
- MIC (Citrobacter freundii): 4 µg/mL (≈ 2.73 µM)
- MIC (Staphylococcus aureus): > 32 µg/mL
- Stability [16]: Stable
- Activity (Cell membrane [17]): Active
- log(activity) (Escherichia coli [18]): 1
- MIC (Proteus mirabilis): > 32 µg/mL
- Cmax [19]: 17000 ng/mL
- Stability [20]: Stable
- MIC50 (Escherichia coli [21]): 4 µg/mL (≈ 2.73 µM)
- MIC90 (Escherichia coli [21]): 8 µg/mL (≈ 5.46 µM)
- Activity (Cytochrome P450 2B6): Not Active
- Activity [22]: Non-Toxic
- MeCN percentage at peak elution [23]: 40.3%
- Activity (Escherichia coli [24]): Active
- Activity (Klebsiella pneumoniae [25]): Active
- AUC(0-t) at 24 h [26]: 3020 ng·h/mL
- solubility [27]: > 1000 µg/mL
- MIC (Escherichia coli [28]): 4 µg/mL (≈ 2.73 µM)
- MIC50 (Klebsiella pneumoniae [29]): 8 µg/mL (≈ 5.46 µM)
- MIC90 (Klebsiella pneumoniae [29]): 32 µg/mL (≈ 21.8 µM)
- Activity (Klebsiella pneumoniae [30]): Active
- Activity [31]: Non-Toxic
- hemolysis at 0.75 h, 400 ug/ml [32]: 9.1%
